Assay [1] deals with AABA1060 (clinical isolate of Acinetobacter baumannii). Put plainly: MIC broth microdilution, AABA1060. In kind it is cell-based. Particulars: for MIC: Acinetobacter baumannii, read-out: MIC AABA1060. The method, boiled down: (§1)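 Strains were grown overnight at 35° C. on Mueller-Hinton agar, suspended to 0.5 McFarland and diluted to a final 3×10^5–7×10^5 CFU/mL. They were then exposed to 2-fold serial drug dilutions in cation-adjusted Mueller-Hinton broth and incubated 18-24 hours at 35° C.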
Background: In broth dilution the organism is exposed to a series of concentrations in liquid medium.

Assay [2] concerns APAE001 (ATCC27853). The assay can be described thus: MIC broth microdilution, APAE001. Type of assay: cell-based, P. aeruginosa. The conditions noted are these: for MIC: Pseudomonas aeruginosa. The method, boiled down: as §1
The subject of assay [3] is ASAU001 (laboratory strain of S. aureus, ATCC29213). Put plainly: MIC broth microdilution, ASAU001. In kind it is cell-based. The conditions noted are these: for MIC: Staphylococcus aureus, ATCC29213, read-out: MIC ASAU001. A digest of the protocol: as §1
For assay [4], the system named is AECO001 (ATCC25922). Put plainly: MIC broth microdilution, AECO001. Type of assay: cell-based, E. coli. Particulars: for MIC: Escherichia coli. The method, boiled down: as §1
For assay [5], the system named is AECO001 HSA AGP. Put plainly: MIC broth microdilution, AECO001 HSA AGP. Type of assay: cell-based, E. coli. The conditions noted are these: for MIC: Escherichia coli. The method, then:
Bacterial isolates were cultivated from −70° C. frozen stocks by overnight passages at 35° C. in ambient air on Mueller-Hinton agar (Beckton Dickinson, Franklin Lakes, N.J.). Clinical isolates tested were obtained from various geographically diverse hospitals in the US and abroad (Focus Diagnostics, Herndon, Va. and JMI, North Liberty, Iowa). Quality control strains were from the American Type Culture Collection (ATCC; Rockville, Md.). Additional primary panel strains were generated using standard molecular biology techniques.
Minimum Inhibitory Concentrations (MICs) were determined by the broth microdilution method in accordance with the Clinical and Laboratory Standards Institute (CLSI) guidelines. In brief, organism suspensions were adjusted to a 0.5 McFarland standard to yield a final inoculum between 3×10^5 and 7×10^5 colony-forming units (CFU)/mL. Drug dilutions and inocula were made in sterile, cation adjusted Mueller-Hinton Broth (Beckton Dickinson). An inoculum volume of 100 μL was added to wells containing 100 μL of broth with 2-fold serial dilutions of drug. All inoculated microdilution trays were incubated in ambient air at 35° C. for 18-24 hours. […] Performance of the assay was monitored by the use of laboratory quality-control strains and levofloxacin, a compound with a defined MIC spectrum, in accordance with CLSI guidelines.
*AECO001 is ATCC25922, AECO063 is ATCC25922 bearing an acrAB mutation, APAE001 is ATCC27853, APAE006 is a strain of P. aeruginosa in which all efflux pumps are inactivated, APAE006+PMBN indicates MICs with the indicated strain in the presence of 8 micrograms per milliliter of polymyxin B nonapeptide, AABA1060 is a clinical isolate of Acinetobacter baumannii, ASAU001 is a laboratory strain of S. aureus (ATCC29213).

Assay [6] relates to APAE006 (strain of P. aeruginosa in which all efflux pumps are inactivated). The assay can be described thus: microbe, parasite or virus in culture. Particulars: for MIC: Pseudomonas aeruginosa. In kind it is cell-based. A digest of the protocol: (§2)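 Incubation: 35° C., ambient air, 18-24 h. Medium: cation-adjusted Mueller-Hinton broth with 2-fold serial dilutions of drug. Inoculum: 3×10^5–7×10^5 CFU/mL final, per CLSI microdilution method.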

The test system of assay [7] is AECO063 (ATCC25922 bearing an acrAB mutation). Put plainly: microbe, parasite or virus in culture. Type of assay: cell-based, E. coli. The conditions noted are these: for MIC: Escherichia coli, ATCC25922, read-out: MIC AECO063. The method, boiled down: as §1
Assay [8] deals with APAE006 in the presence of 8 micrograms per milliliter of polymyxin B nonapeptide. In kind it is cell-based, P. aeruginosa. The conditions noted are these: APAE006 with 8 micrograms per milliliter polymyxin B nonapeptide. The method, boiled down:
as §2

The mark [9] stands for this setting: ATCC27853, read-out: MIC APAE001, APAE001 is ATCC27853.
The mark [10] stands for this setting: ATCC25922, read-out: MIC AECO001.
Where [11] appears, read: read-out: MIC APAE006, P. aeruginosa, all efflux pumps inactivated.
Where [12] appears, read: ATCC27853, read-out: MIC APAE001, APAE001 (ATCC27853).
Setting [13] is: ATCC25922, read-out: MIC AECO001 HSA AGP.
[14] abbreviates: read-out: MIC APAE006, APAE006, all efflux pumps inactivated.

Converted amounts (≈) assume the structure as drawn. Read-outs that look alike come from different tables or passages of the source.

As to `C[C@@H](O)[C@H](NC(=O)c1ccc(Cc2ccc(CN3CCOCC3)cc2)cc1)C(=O)NO` [Example 48-5, N-((1S,2R)-2-Hydroxy-1-hydroxycarbamoyl-propyl)-4-(4-morpholin-4-ylmethyl-benzyl)-benzamide], the MIC in assay [1], in assay [2] (setting [9]), in assay [3], in assay [4] (setting [10]), in assay [5] and in assay [6] (setting [11]) was more than 64 µg/mL throughout. Also, in assay [7], the MIC is more than 64 µg/mL.
In the case of `CC(O)[C@H](NS(=O)(=O)c1ccc(C#Cc2ccc(CN3CCOCC3)cc2)cc1)C(=O)NO` (stereo partly shown) [Example 62-7], the MIC in assay [1] was 16 to 64 µg/mL (≈ 33.8 to 135 µM); in assay [2] (setting [9]) it was more than 64 µg/mL; in assay [3], more than 64 µg/mL; in assay [4] (setting [10]) it was 16 to 64 µg/mL (≈ 33.8 to 135 µM); in assay [5], 16 to 64 µg/mL (≈ 33.8 to 135 µM); in assay [6] (setting [11]), 2 to 16 µg/mL (≈ 4.22 to 33.8 µM). In addition, the MIC in assay [7] lay in the range of 2 to 16 µg/mL (≈ 4.22 to 33.8 µM).
Take `CC(C)(O)[C@H](NC(=O)c1ccc(C#CC#Cc2cccnc2)cc1)C(=O)NO` [Example 88-5]: the MIC in assay [1] is less than 2 µg/mL; in assay [2] (setting [9]), 2 to 16 µg/mL (≈ 5.3 to 42.4 µM); in assay [3] it was 16 to 64 µg/mL (≈ 42.4 to 170 µM); in assay [4] (setting [10]), less than 2 µg/mL; in assay [5], less than 2 µg/mL; in assay [6] (setting [11]) it was less than 2 µg/mL. In addition, the MIC in assay [7] is less than 2 µg/mL.
On to `C[C@@H](N)[C@H](NC(=O)c1ccc(CCc2ccc(CN3CCOCC3)cc2)cc1)C(=O)NO` [Example 137-1], for which, in assay [1] (clinical isolate of Acinetobacter baumannii), the “MIC AABA1060” value is “D (MIC's of greater than 64.0 μg/mL = D)”. Further, the “MIC APAE001” value in assay [2] (APAE001 is ATCC27853) is “B (MIC's of greater than 2.0 μg/mL to 16.0 μg/mL = B)”. Further, the “MIC ASAU001” value in assay [3] (S. aureus ATCC29213) is reported as “D (MIC's of greater than 64.0 μg/mL = D)”. In addition, the “MIC AECO001” value in assay [4] (AECO001 is ATCC25922) is reported as “A (MIC's of 2.0 μg/mL or less = A)”. Further, the “MIC AECO001 HSA AGP” value in assay [5] is “B (MIC's of greater than 2.0 μg/mL to 16.0 μg/mL = B)”. Besides, the “MIC APAE006” value in assay [6] (P. aeruginosa, all efflux pumps inactivated) is “A (MIC's of 2.0 μg/mL or less = A)”. The “MIC AECO063” value in assay [7] (ATCC25922 bearing an acrAB mutation) was “A (MIC's of 2.0 μg/mL or less = A)”.
Take `CC(C)(N)[C@H](NC(=O)c1ccc(C#CC#CC2CCNCC2)cc1)C(=O)NO` [Example 137-23]: the MIC in assay [1] was 16 to 64 µg/mL (≈ 41.8 to 167 µM); in assay [2] (setting [12]) it was 2 to 16 µg/mL (≈ 5.23 to 41.8 µM); in assay [3] it was 16 to 64 µg/mL (≈ 41.8 to 167 µM); in assay [4] (setting [10]), 16 to 64 µg/mL (≈ 41.8 to 167 µM); in assay [4] (setting [13]) it was 16 to 64 µg/mL (≈ 41.8 to 167 µM); in assay [6] (setting [14]), less than 2 µg/mL. The MIC in assay [7] lay within 16 to 64 µg/mL (≈ 41.8 to 167 µM). The “MIC APAE006 + PMBN” value in assay [8] was “B (MIC's of greater than 2.0 μg/mL to 16.0 μg/mL = B)”.
With `O=C(NC(C(=O)NO)C1(O)CC1)c1ccc(C#Cc2ccc(CN3CCOCC3)cc2)cc1` (stereo not shown) [Example 137-24], the MIC in assay [1] was 2 to 16 µg/mL (≈ 4.45 to 35.6 µM); in assay [2] (setting [12]), 2 to 16 µg/mL (≈ 4.45 to 35.6 µM); in assay [3], 16 to 64 µg/mL (≈ 35.6 to 142 µM); in assay [4] (setting [10]), less than 2 µg/mL; in assay [4] (setting [13]), 2 to 16 µg/mL (≈ 4.45 to 35.6 µM); in assay [6] (setting [14]), less than 2 µg/mL. In addition, the MIC in assay [7] was less than 2 µg/mL. In addition, the “MIC APAE006 + PMBN” value in assay [8] is listed as “A (MIC's of 2.0 μg/mL or less = A)”.
Regarding `C[C@@H](N)[C@H](NC(=O)c1ccc(C#CC#CCCCO)cc1)C(=O)NO` [Example 137-25], the MIC in assay [1] was 16 to 64 µg/mL (≈ 46.6 to 186 µM); in assay [2] (setting [12]), 16 to 64 µg/mL (≈ 46.6 to 186 µM); in assay [3] it was 16 to 64 µg/mL (≈ 46.6 to 186 µM); in assay [4] (setting [10]), 16 to 64 µg/mL (≈ 46.6 to 186 µM); in assay [4] (setting [13]) it was 16 to 64 µg/mL (≈ 46.6 to 186 µM); in assay [6] (setting [14]), less than 2 µg/mL. Besides, the MIC in assay [7] was in the range of 2 to 16 µg/mL (≈ 5.82 to 46.6 µM). For the same compound, the “MIC APAE006 + PMBN” value in assay [8] is “A (MIC's of 2.0 μg/mL or less = A)”.

These data come from patent US9617256B2 (priority 2007, dated 2017).
